Assay results: patent publication US8188111B2, “Amide and carbamate derivatives of alkyl substituted N-[4-(4-amino-1H-imidazo[4,5-c]quinolin-1-yl)butyI]methanesulfonamides and methods” (3M Innovative Properties Company, priority 2005, dated 2012)

Structure (SMILES) | melting point
CCc1nc2c(NC(=O)c3ccccc3)nc3ccccc3c2n1CCCCNS(C)(=O)=O [Example 2, N-(2-Ethyl-1-{4-[(methylsulfonyl)amino]butyl}-1H-imidazo[4,5-c]quinolin-4-yl)benzamide] | 249 to 250 °C
CCc1nc2c(NC(C)=O)nc3ccccc3c2n1CCCCNS(C)(=O)=O [Example 1, N-(2-Ethyl-1-{4-[(methylsulfonyl)amino]butyl}-1H-imidazo[4,5-c]quinolin-4-yl)acetamide] | 90 to 91 °C
CCCCOC(=O)Nc1nc2ccccc2c2c1nc(CC)n2CCCCNS(C)(=O)=O [Example 7, Butyl 2-Ethyl-1-{4-[(methylsulfonyl)amino]butyl}-1H-imidazo[4,5-c]quinolin-4-ylcarbamate] | 164 to 166 °C
CCc1nc2c(NC(=O)C(C)C)nc3ccccc3c2n1CCCCNS(C)(=O)=O [Example 4, N-(2-Ethyl-1-{4-[(methylsulfonyl)amino]butyl}-1H-imidazo[4,5-c]quinolin-4-yl)-2-methylpropanamide] | 122 to 124 °C
CCc1nc2c(NC(=O)C(C)(C)C)nc3ccccc3c2n1CCCCNS(C)(=O)=O [Example 5, N-(2-Ethyl-1-{4-[(methylsulfonyl)amino]butyl}-1H-imidazo[4,5-c]quinolin-4-yl)-2,2-dimethylpropanamide] | 220 to 221 °C

Further lines, results first:

melting point | Structure (SMILES)
155 to 157 °C | CCCOC(=O)Nc1nc2ccccc2c2c1nc(CC)n2CCCCNS(C)(=O)=O [Example 6, Propyl 2-Ethyl-1-{4-[(methylsulfonyl)amino]butyl}-1H-imidazo[4,5-c]quinolin-4-ylcarbamate]
185 to 187 °C | CCOC(=O)Nc1nc2ccccc2c2c1nc(CC)n2CCCCNS(C)(=O)=O [Example 3, Ethyl 2-Ethyl-1-{4-[(methylsulfonyl)amino]butyl}-1H-imidazo[4,5-c]quinolin-4-ylcarbamate]
